Like-named read-outs stand apart in the source and are kept apart here.
Target: T1, MCH receptor (Homo sapiens, UniProt Q99705)
T1 construct: expressed in transfected cells; host or cells: CHO cells (membranes)
Test: MCH Receptor Binding Assay
Method: MCH Receptor Binding Assay:
Membranes from CHO cells expressing the MCH receptor were prepared by lysing cells with 5 mM HEPES for 15 min at 4C. Cell lysates were centrifuged ([…], 15 min) and the pellet was resuspended in 5 mM HEPES. For each 96-well plate (Microlite, Dynex Technologies), 1 mg of cell membranes were incubated with 10 mg of wheat germ agglutinin SPA beads (Amersham) for 5 min at 4 C. in a volume of 10 ml of binding buffer (25 mM HEPES, 10 mM MGCl2, 10 mM NaCl, 5 mM MnCl2, 0.1% BSA). The membrane/bead mixture was centrifuged (1500×g, 3.5 min), the supernatant was aspirated, and the pellet was resuspended in 10 ml binding buffer. The centrifugation, aspiration and resuspension were then repeated. […] Nonspecific binding was determined by including 1 μM MCH in the binding reaction. The binding reaction was incubated at room temperature for 2 h. Plates were then analyzed in a TOPCOUNT microplate scintillation counter (Packard). Data was analyzed and Ki values were determined using GraphPad Prim.

[1] = Table 1b, preferred compounds, read-out: MCH R1 Ki
[2] = Binding Activity, membranes from CHO cells expressing the MCH receptor, [125I]-MCH, read-out: MCH Ki

T1 sequence (Q99705 whole entry): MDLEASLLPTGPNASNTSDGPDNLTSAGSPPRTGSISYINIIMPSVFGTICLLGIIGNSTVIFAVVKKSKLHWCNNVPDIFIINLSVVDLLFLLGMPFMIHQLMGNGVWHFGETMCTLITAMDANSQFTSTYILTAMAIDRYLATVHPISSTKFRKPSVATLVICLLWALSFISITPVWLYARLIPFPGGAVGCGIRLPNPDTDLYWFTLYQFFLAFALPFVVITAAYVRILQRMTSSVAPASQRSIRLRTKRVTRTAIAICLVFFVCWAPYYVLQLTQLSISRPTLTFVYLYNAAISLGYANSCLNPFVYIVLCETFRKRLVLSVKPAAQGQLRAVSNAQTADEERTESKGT

Row | SMILES | Ki [1] | Ki [2]
1 | N#Cc1cccc(C23CCC(N(CCN4CCCC4)C(=O)Nc4cc(Cl)cc(Cl)c4)C2C3)c1 (centres unmarked) | 15 nM | 
2 | N#Cc1cccc([C@]23CC[C@@H](N(CCCCN4CCCCC4)C(=O)Nc4ccc(F)c(C(F)(F)F)c4)[C@H]2C3)c1 [Example 227] |  | 1.6 nM
3 | CN(C)CCCCN(C(=O)Nc1ccc(F)c(Cl)c1)[C@@H]1CC[C@]2(c3cccc(C#N)c3)C[C@H]12 [Example 195] |  | 10 nM
4 | CC(C)CN1CCN(CCN(C(=O)Nc2ccc(F)c(C(F)(F)F)c2)[C@@H]2CC[C@]3(c4cccc(C#N)c4)C[C@H]23)CC1 [Example 208] |  | 9 nM
5 | CS(=O)(=O)N1CCC(CN(C(=O)Nc2ccc(F)c(C(F)(F)F)c2)[C@@H]2CC[C@@]3(c4cccc(C#N)c4)CC3C2)CC1 (some centres unmarked) | 26 nM | 
6 | N#Cc1cccc([C@]23CC[C@@H](N(CCN4CCCC4)C(=O)Nc4cc(Cl)cc(Cl)c4)[C@H]2C3)c1 [Example 188] |  | 15 nM
7 | N#Cc1cccc([C@]23CC[C@@H](N(CCN4CCNCC4)C(=O)Nc4ccc(F)c(C(F)(F)F)c4)[C@H]2C3)c1 [Example 210] |  | 20 nM
8 | N#Cc1cccc([C@]23CC[C@@H](N(CCCCN4CCOCC4)C(=O)Nc4ccc(F)c(C(F)(F)F)c4)[C@H]2C3)c1 [Example 225] |  | 2.6 nM
9 | N#Cc1cccc([C@]23CCC(N(CCN4CC[C@@H](O)C4)C(=O)Nc4ccc(F)c(Cl)c4)[C@H]2C3)c1 (some centres unmarked) | 13 nM | 
10 | CN(C)CCN(C(=O)Nc1ccc(F)c(Cl)c1)[C@@H]1CC[C@]2(c3cccc(C#N)c3)C[C@H]12 [drawing 673] | 14 nM | 
11 | N#Cc1cccc([C@]23CC[C@@H](N(CCN4CC[C@@H](O)C4)C(=O)Nc4ccc(F)c(C(F)(F)F)c4)[C@H]2C3)c1 [Example 198] |  | 11 nM
12 | CN1CCN(CCCN(C(=O)Nc2ccc(F)c(Cl)c2)[C@@H]2CC[C@]3(c4ccc(OC(F)(F)F)cc4)C[C@H]23)CC1 | 13 nM | 
13 | O=C(Nc1ccc(F)c(Cl)c1)N(CCN1CCCC1)C1CC=C(c2cccc(Cl)c2)CC1 (centres unmarked) | 14 nM | 
14 | CN(C)CCN(C(=O)Nc1ccc(F)c(Cl)c1)[C@@H]1CC[C@]2(c3cccc(C#N)c3)C[C@H]12 [Example 187] |  | 14 nM
15 | N#Cc1cccc([C@@]23CC[C@@H](N(CCN4C[C@@H](O)[C@@H](O)C4)C(=O)Nc4ccc(F)c(Cl)c4)CC2C3)c1 (some centres unmarked) | 18 nM | 
16 | N#Cc1cccc([C@]23CC[C@@H](N(CCN4CCN(CC5CC5)CC4)C(=O)Nc4ccc(F)c(C(F)(F)F)c4)[C@H]2C3)c1 [Example 209] |  | 10 nM
17 | N#Cc1cccc([C@]23CC[C@@H](N(CCCCN4CCCC4)C(=O)Nc4ccc(F)c(Cl)c4)[C@H]2C3)c1 [Example 196] |  | 3.9 nM
18 | N#Cc1cccc(C23CCC(N(CCN4CCCC4)C(=O)Nc4ccc(F)c(Cl)c4)C2C3)c1 (centres unmarked) | 18 nM | 
19 | N#Cc1cccc([C@]23CC[C@@H](N(CCN4CC[C@@H](O)C4)C(=O)Nc4ccc(F)c(Cl)c4)[C@H]2C3)c1 [Example 191] |  | 22 nM
20 | N#Cc1cccc([C@@]23CC[C@@H](N(CC4CCN(S(=O)(=O)N5CCOCC5)CC4)C(=O)Nc4ccc(F)c(F)c4)CC2C3)c1 (some centres unmarked) | 45 nM | 
21 | C[S+]([O-])c1cccc(C23CCC(N(CCCN4CCCC4)C(=O)Nc4ccc(Cl)c(Cl)c4)CC2C3)c1 (centres unmarked) | 20 nM | 
22 | N#Cc1cccc([C@@]23CC[C@@H](N(CCN4CC[C@@H](O)C4)C(=O)Nc4cc(Cl)cc(Cl)c4)CC2C3)c1 (some centres unmarked) | 13 nM | 
23 | N#Cc1cccc([C@@]23CC[C@@H](N(CCN4CC[C@@H](O)C4)C(=O)Nc4ccc(F)c(C(F)(F)F)c4)CC2C3)c1 (some centres unmarked) [drawing 655] | 16 nM | 
24 | N#Cc1cccc([C@@]23CCC(N(CCN4CC[C@@H](O)C4)C(=O)Nc4ccc(F)c(C(F)(F)F)c4)[C@@H]2C3)c1 (some centres unmarked) [Example 199] |  | 23 nM
25 | N#Cc1cccc([C@]23CC[C@@H](N(CCN4CC[C@@H](O)C4)C(=O)Nc4ccc(F)c(C(F)(F)F)c4)[C@H]2C3)c1 [Example 193] |  | 7.1 nM
26 | CSc1cccc([C@@]23CC[C@@H](N(CCCN4CCCC4)C(=O)Nc4ccc(F)c(F)c4)CC2C3)c1 (some centres unmarked) | 22 nM | 
27 | O=C(Nc1ccc(F)c(C(F)(F)F)c1)N(CCN1CC[C@@H](O)C1)[C@@H]1CC[C@]2(c3cccc(Br)c3)C[C@H]12 [Example 197] |  | 79 nM
28 | N#Cc1cccc([C@]23CC[C@@H](N(CCN4CCCCC4)C(=O)Nc4ccc(F)c(Cl)c4)[C@H]2C3)c1 [Example 194] |  | 4.1 nM
29 | CN1CCN(CCN(C(=O)Nc2ccc(F)c(C(F)(F)F)c2)[C@@H]2CC[C@]3(c4cccc(C#N)c4)C[C@H]23)CC1 [Example 206] |  | 30 nM

More lines, now with the values ahead:

Row | Ki [1] | Ki [2] | SMILES
30 | 1.6 nM |  | CC(C)N(CCO)CCN(C(=O)Nc1cc(Cl)nc(Cl)c1)C1CC[C@@]2(c3cccc(C#N)c3)CC2C1 (some centres unmarked)
31 | 1.6 nM |  | CC(C)N(CCN(C(=O)Nc1cc(Cl)nc(Cl)c1)[C@@H]1CC[C@@]2(c3cccc(C#N)c3)CC2C1)C(C)CO (some centres unmarked)
32 | 9.1 nM |  | CNCCN(C(=O)Nc1ccc(F)c(Cl)c1)[C@@H]1CC[C@@]2(c3cccc(C#N)c3)CC2C1 (some centres unmarked)
33 | 4.8 nM |  | CC(=O)Nc1cccc(C23CC[C@@H](N(CCN4CC[C@@H](O)C4)C(=O)Nc4ccc(F)c(C(F)(F)F)c4)CC2C3)c1 (some centres unmarked)
34 | 7.1 nM |  | CCNS(=O)(=O)NC1CCN(CCCN(C(=O)Nc2ccc(F)c(F)c2)[C@@H]2CC[C@@]3(c4cccc(C#N)c4)CC3C2)C1 (some centres unmarked)
35 | 5 nM |  | N#Cc1cccc([C@@]23CC[C@@H](N(CCCN4CC[C@@H](F)C4)C(=O)Nc4ccc(F)c(F)c4)CC2C3)c1 (some centres unmarked)
36 | 5.9 nM |  | CCOC(=O)NC1CCN(CCCN(C(=O)Nc2ccc(F)c(F)c2)[C@@H]2CC[C@@]3(c4cccc(C#N)c4)CC3C2)C1 (some centres unmarked)
37 | 6.2 nM |  | N#Cc1cccc([C@@]23CC[C@@H](N(CCN4CC[C@@H](O)C4)C(=O)Nc4ccc(F)c(C(F)(F)F)c4)CC2C3)c1 (some centres unmarked) [drawing 651]
38 | 2 nM |  | CN1CCN(CCCCN(C(=O)Nc2cc(Cl)nc(Cl)c2)C2CC[C@@]3(c4ccc(C#N)cc4)CC23)CC1 (some centres unmarked)
39 | 2.2 nM |  | CN1CCN(CCCCN(C(=O)Nc2ccc(F)c(Cl)c2)[C@@H]2CC[C@]3(c4cccc(C#N)c4)C[C@H]23)CC1
40 | 12 nM |  | O=C(Nc1ccc(F)c(C(F)(F)F)c1)N(CCN1CCCC1)C1CC=C(c2cccc(Cl)c2)CC1 (centres unmarked)
41 | 1.2 nM |  | N#Cc1cccc([C@@]23CC[C@@H](N(CCCN4CC[C@@H](O)C4)C(=O)Nc4ccc(F)c(F)c4)CC2C3)c1 (some centres unmarked)
42 | 11.2 nM |  | CC(C)N(CCN(C(=O)Nc1ccsc1)[C@H]1CC[C@]2(c3cccc(C#N)c3)CC2C1)C(C)C (some centres unmarked)
43 | 4.9 nM |  | CNS(=O)(=O)NC1CCN(CCCN(C(=O)Nc2ccc(F)c(Cl)c2)[C@@H]2CC[C@@]3(c4cccc(C#N)c4)CC3C2)C1 (some centres unmarked)
44 | 8 nM |  | CC1(C)[C@H]2[C@@H](CO)N(CCCCN(C(=O)Nc3ccc(F)c(C(F)(F)F)c3)[C@@H]3CC[C@@]4(c5ccc(C#N)cc5)C[C@H]34)C[C@H]21
45 | 5.4 nM |  | CS(=O)(=O)N1CCC(CN(C(=O)Nc2ccc(F)c(F)c2)[C@@H]2CC[C@@]3(c4cccc(C#N)c4)CC3C2)CC1 (some centres unmarked)
46 | 3 nM |  | N#Cc1cccc([C@@]23CC[C@@H](N(CCCN4CC[C@@H](O)C4)C(=O)Nc4ccc(F)c(Cl)c4)CC2C3)c1 (some centres unmarked) [drawing 646]
47 | 4.2 nM |  | CN1CCN(CCCN(C(=O)Nc2ccc(F)c(Cl)c2)[C@@H]2CC[C@]3(c4cccc(C#N)c4)C[C@@H]3C2)CC1

Row | Ki [1] | Ki [2] | SMILES
48 | 2.9 nM |  | CN1CCN(CCCCN(C(=O)Nc2ccc(F)c(Cl)c2)C2CC[C@@]3(c4ccc(C#N)cc4)CC23)CC1 (some centres unmarked)
49 | 3 nM |  | N#Cc1cccc([C@@]23CC[C@@H](N(CCN4C[C@H]5C[C@H]5[C@H]4CO)C(=O)Nc4cc(Cl)nc(Cl)c4)CC2C3)c1 (some centres unmarked)
50 | 10 nM |  | N#Cc1cccc([C@]23CC[C@H](N(CC4CCN(CC5CC5)CC4)C(=O)Nc4ccc(F)c(Cl)c4)CC2C3)c1 (some centres unmarked)
51 | 11 nM |  | N#Cc1ccc(C2=CCC(N(CCN3CCCC3)C(=O)Nc3ccc(F)c(Cl)c3)CC2)cc1 (centres unmarked)
52 | 3.7 nM |  | N#Cc1cccc([C@@]23CC[C@@H](N(CCCN4CCC4)C(=O)Nc4ccc(F)c(F)c4)CC2C3)c1 (some centres unmarked)
53 | 2.7 nM |  | N#Cc1cccc(C2=CCC(N(CCN3CCCC3)C(=O)Nc3ccc(F)c(C(F)(F)F)c3)CC2)c1 (centres unmarked)
54 | 4.1 nM |  | N#Cc1cccc([C@]23CC[C@@H](N(CCN4CCCCC4)C(=O)Nc4ccc(F)c(Cl)c4)[C@H]2C3)c1 [drawing 671]
55 | 4.6 nM |  | CC(=O)Nc1cccc([C@@]23CC[C@@H](N(CCN4CCCC4)C(=O)Nc4ccc(F)c(C(F)(F)F)c4)CC2C3)c1 (some centres unmarked)
56 | 3.5 nM |  | N#Cc1cccc([C@@]23CCC(N(CCN4CC[C@@H](O)C4)C(=O)Nc4cc(Cl)cc(Cl)c4)CC2C3)c1 (some centres unmarked)
57 | 1.1 nM |  | N#Cc1cccc([C@@]23CC[C@@H](N(CCCN4CCCC4)C(=O)Nc4ccc(F)c(F)c4)CC2C3)c1 (some centres unmarked)
58 | 1.8 nM |  | N#Cc1cccc([C@@]23CC[C@@H](N(CCCN4CC[C@@H](O)C4)C(=O)Nc4cc(F)cc(F)c4)CC2C3)c1 (some centres unmarked)
59 | 11 nM |  | N#Cc1cccc([C@]23CC[C@@H](N(CCN4CC[C@@H](O)C4)C(=O)Nc4ccc(F)c(C(F)(F)F)c4)[C@H]2C3)c1 [drawing 636]
60 | 3.9 nM |  | N#Cc1cccc([C@]23CC[C@@H](N(CCCCN4CCCC4)C(=O)Nc4ccc(F)c(Cl)c4)[C@H]2C3)c1 [drawing 675]
61 | 7.5 nM |  | N#Cc1cccc([C@]23CC[C@H](N(CC4CCN(C5CCSC5)CC4)C(=O)Nc4ccc(F)c(Cl)c4)CC2C3)c1 (some centres unmarked)
62 | 5.8 nM |  | CC(=O)NC1CCN(CCCN(C(=O)Nc2ccc(F)c(F)c2)[C@@H]2CC[C@@]3(c4cccc(C#N)c4)CC3C2)C1 (some centres unmarked)
63 | 7.1 nM |  | N#Cc1cccc([C@]23CC[C@@H](N(CCN4CC[C@@H](O)C4)C(=O)Nc4ccc(F)c(C(F)(F)F)c4)[C@H]2C3)c1 [drawing 669]
64 | 1.8 nM |  | N#Cc1cccc([C@@]23CC[C@@H](N(CCCN4CC[C@@H](O)C4)C(=O)Nc4ccc(F)c(Cl)c4)CC2C3)c1 (some centres unmarked) [drawing 656]
65 | 2.8 nM |  | CC(C)N(CCN(C(=O)Nc1ccc(F)c(F)c1)C1CC[C@]2(c3cccc(C#N)c3)CC2C1)C(C)C (some centres unmarked)
